Source: US20240150809A1, “Method of Evaluating the Biofilm Detachment Efficacy of Compositions” (Colgate-Palmolive Company, priority 2021, published 2024)

Test system: S. gordonii biofilms
Assay: adapted spinning-disc rheometry analysis of biofilm detachment
Assay type: cell-based, Streptococcus gordonii
Conditions: for biofilm momentum coefficient (CB): 200-300 rad·s^−1, vs untreated; for area under the curve (AUC) of the torque-angular velocity curves: whole analyzed range
Description: Spinning-disc rheology was adapted to analyze biofilm detachment from surfaces. S. gordonii biofilms were grown on 3D printed coupons for 5 days. The model for the coupons was designed in SolidWorks (Dassault Systèmes). Coupons were 3D printed using a Prime 30 PolyJet 3D printer (Objet, Stratasys) using RGD720 photopolymer for the printing material (Stratasys). The coupon was printed at a resolution of 0.0008 inches. The coupon surface was sanded used P300 sandpaper to create a rougher surface for bacteria to attach. Prior to inoculating, coupons were sterilized in 70% ethanol.
S. gordonii wild type strain DL1 was used in this study. Overnight cultures were prepared by inoculating 10 mL of brain heart infusion broth (Oxoid; BHI) with a colony of S. gordonii and incubated statically overnight at 37° C. with 5% CO2. Sterile 40 mm coupons were placed in a Petri dish containing 40 mL BHI, supplemented with 0.5% sucrose. Coupons were inoculated with 400 μL of overnight culture. Biofilms were incubated in a humidified chamber at 37° C. with 5% CO2, on an orbital shaker at 150 rpm. Every 24 h the media was replenished. […]
Biofilms were analyzed on a Discovery Hybrid Rheometer-2 (HD-2) (TA Instruments). A 15×15 cm square clear acrylic container filled with 2.8 L reverse osmosis water was transferred onto the Peltier plate. Biofilm-coated coupons were immersed and attached to the rheometer shaft using a custom-made adapter probe. The gap distance between the bottom of the container and the coupon was set to 3.5 cm (FIG. 1). Immersed coupons were spun at an angular velocity (ω) range of 0.1-300 rad·s^−1, incrementing the speed over 360 seconds, and the resulting torque (T), a measurement of resistance to rotation, was measured across this velocity range.
Data was collected using TRIOS v5 software (TA instruments), with raw data exported in excel. Data was transformed, and calculations performed in excel. Data was visualized and statistical analysis performed in GraphPad Prism v8 (GraphPad Software). All statistical comparisons were performed using a Student's t-test, with p<0.05 indicating significance.
To more easily observe the changes in torque associated with biofilm detachment, the torque-angular velocity data was linearized and transformed. The data was linearized by taking the square root of the torque. The running slope of 5 data points of the linearized data was determined. […] Therefore, final transformed data is presented as the running slope of the linearized data against angular velocity, starting at 20 rad·s^−1.
Five day S. gordonii biofilms were treated with either PBS (untreated control) or 4% arginine for 2 min. […] After treatment, Biofilms were analyzed on a Discovery Hybrid Rheometer-2 (HD-2) (TA Instruments) as described above. Four biological replicates were analyzed, each with 2-4 technical replicates (total N=11).
To quantify the mechanical differences between arginine treated and untreated S. gordonii biofilms, the biofilm momentum coefficient (CB) across the turbulent regimes of 200-300 rad·s^−1 was determined according to equation 1: […]
To quantify these differences, the angular velocity where the first reduction in torque occurred was converted to the shear stress acting on the outer edge of the coupon, according to equation 3.
Next, the biofilm disrupting effect of arginine was compared with that of glycine and lysine by the spinning-disc rheometry assay to determine if biofilm disrupting effect is a general property of amino acids, or specific to arginine.

[1] = 5 day S. gordonii biofilms, 4% arginine for 2 min, vs PBS untreated control
[2] = 5 day S. gordonii biofilms, 4% arginine for 2 min, vs untreated
[3] = Seven day S. gordonii biofilms, 4% arginine or 0.23M glycine or lysine for 2 min, equation 3, vs untreated
[4] = Seven day S. gordonii biofilms, 4% arginine or 0.23M glycine or lysine for 2 min, vs untreated

Structure (SMILES) | torque across angular velocity range (5 day S. gordonii biofilms, 4% arginine for 2 min, 0.1-300 rad·s^−1, vs untreated) | biofilm momentum coefficient (CB) (5 day S. gordonii biofilms, 4% arginine for 2 min) | shear stress at the first reduction in torque (initiation of detachment) (5 day S. gordonii biofilms, 4% arginine for 2 min, equation 3, vs untreated) | angular velocity at which changes in torque associated with biofilm detachment events occurred (5 day S. gordonii biofilms, 4% arginine for 2 min, transformed analysis, vs untreated) | amount of remaining biofilm attached to the coupon after rheometry analysis [1] | biofilm morphology (macroscopic) [1] | changes in torque in transformed data (running slope of torque^1/2 vs angular velocity) [2] | area under the curve (AUC) of the torque-angular velocity curves [2] | biofilm momentum coefficient (CB) (Seven day S. gordonii biofilms, 4% arginine or 0.23M glycine or lysine for 2 min) | shear stress at the first reduction in torque (detachment shear stress) [3] | torque (torque-displacement profile) [4] | area under the curve (AUC) of the torque-angular velocity curves [4]
N=C(N)NCCC[C@H](N)C(=O)O [arginine] | reduced torque | no statistical difference | significantly lower shear stresses | lower angular velocity ranges | did not appear to affect | did not appear to affect | greater changes in torque | significantly reduced AUC | significantly lower | significantly lower shear stresses | reduced torque | significantly reduced AUC
NCC(=O)O [glycine, reference compound] | – | – | – | – | – | – | – | – | – | no significant difference | – | no significant differences
NCCCC[C@H](N)C(=O)O [lysine, reference compound] | – | – | – | – | – | – | – | – | – | no significant difference | – | no significant differences
